In patent publication US20170029451A1, “BRANCHED CHAIN ACYCLIC NUCLEOSIDE PHOSPHONATE ESTERS AND METHODS OF SYNTHESIS AND USES THEREOF” (CHIMERIX, INC., priority 2013, published 2017):
Read-outs that look alike come from different tables or passages of the source.

Experiments:
HBV = HBV antiviral activity in 2.2.15 cells; assay type: cell-based; conditions: Hepatitis B virus, cell line 2.2.15
in vitro [1] = conditions: human
BKV (Gardner strain) = test: BKV EC50 in Vero cells (qPCR of supernatant BKV DNA); assay type: cell-based, BK virus (BKV); conditions: Betapolyomavirus hominis
Procedure: Costar 96-well tissue culture plates were seeded with 10,000 Vero cells/well in DMEM containing 2% Hyclone Standard Fetal Bovine Serum (FBS, Cat 5H30088.03) and 1% Hyclone Penicillin and Streptomycin. Outer wells were not used to minimize the edge-effect produced by extended incubations. Cells were inoculated with 115 BKV DNA copies/cell (ATCC, Gardner strain). Serial dilutions of test compounds were added to the cells and plates were incubated for 10 days at 37° C. in 5% CO2. After the 10-day incubation, 50 μL supernatant was mixed with 50 μL 2× lysis buffer that provided a final concentration 0.5 mg/mL protease K, 50 mM KCl, 10 mM Tris-Cl pH 8.0, 2.5 mM MgCl2, 0.45% IGEPAL, and 0.45% Tween-20 dissolved in DEPC-treated water. Each plate was incubated for 2 hours at 55° C. Supernatant BKV DNA was measured by quantitative polymerase chain reaction (qPCR) using forward and reverse BKV PCR primers, and a FAM-labeled probe. Absolute quantitation of viral copy number was performed using a standard curve with dilutions of a BKV DNA amplicon containing sequences homologous to the amplified fragment. The following qPCR amplification conditions were used: 1 cycle at 95° C. for 10 minutes, followed by 45 cycles of 95° C. for 15 seconds and 60° C. for 60 seconds. The qPCR reactions were performed using an Applied Biosystems 7500 real Time PCR System. Gen 5 software (BioTek Instruments, Inc.) was used to calculate the concentration which inhibited the viral DNA levels of BKV-infected Vero cells by 50% (EC50).

Ebola = test: microbe, parasite or virus in culture; assay type: cell-based, ebola virus; conditions: Zaire ebolavirus
MCMV = MCMV antiviral activity in MEF cells; assay type: cell-based; conditions: Virus MCMV, cell line MEF
[2] = tested on: Influenza virus B/FL/4/2006; test: microbe, parasite or virus in culture; assay type: cell-based; conditions: unidentified influenza virus, MDCK, read-out: B/FL/4/2006 (EC50, μM)
in vitro [3] = conditions: dog
[4] = tested on: Influenza virus A/CA/10/2009; test: microbe, parasite or virus in culture; assay type: cell-based; conditions: unidentified influenza virus, MDCK, read-out: A/CA/10/2009 (EC50, μM)
HHV-8 = HHV-8 antiviral activity in BCBL-1 cells; assay type: cell-based, human herpes virus 8 (HHV-8); conditions: Homo sapiens, BCBL1; Virus HHV-8, cell line BCBL-1
[5] = tested on: Cowpox Virus (Strain Brighton); test: microbe, parasite or virus in culture; assay type: cell-based; conditions: Fibroblast, read-out: CPXV EC50, μM
HCMV (Strain AD169) = test: Plaque reduction assay, HCMV AD169 in human foreskin fibroblast cells; assay type: cell-based, Human Cytomegalovirus (HCMV); conditions: for EC50: Human betaherpesvirus 5, AD169, Fibroblast
HHV-6B = test: DNA hybridization assay for HHV-6B in MOLT-3 cells; assay type: cell-based, human herpes virus 6 (HHV-6); conditions: Homo sapiens; Virus HHV-6B, cell line MOLT-3
Procedure: Assays for EBV were performed in Akata cells that were induced to undergo a lytic infection with 50 μg/ml of a goat anti-human IgG antibody by standard methods. Experimental compounds were diluted in round bottom 96-well plates to yield concentrations ranging from 20 to 0.016 μM. Akata cells were added to the plates at a concentration of 4×10^4 cells per well and incubated for 72 h. For HHV-6 assays, compounds were serially diluted in 96-well plates then 1×10^4 uninfected HSB-2 or Molt-3 cells were added to each well. Infection was initiated by adding HHV-6A infected HSB-2 cells, or HHV-6B infected Molt-3 cells, at a ratio of approximately 1 infected cell for every 10 uninfected HSB-2 cells or Molt-3 cells respectively and incubated for 7 d at 37° C.
For all assays, 100 µl of denaturation buffer (1.2M NaOH, 4.5M […] NaCl) was added to each well to denature the DNA and a […] aliquot was aspirated through an Immobilon nylon membrane (Millipore, Bedford, Mass.) using a Biodot apparatus (Bio-Rad, Hercules, Calif.). The membranes were then allowed to dry before equilibration in DIG Easy Hyb (Roche Diagnostics, Indianapolis, Ind.) at 56° C. for 30 min. Specific digoxigenin (DIG)-labeled probes were prepared for each virus according to the manufacturer's protocol (Roche Diagnostics). […]

**Q.** For CC(C)CCCCCCCCCCCCCCOCCCOP(=O)(O)COC(CO)Cn1ccc(=O)[nH]c1=O (stereo not shown) [Compound 12], which EC50 (HBV) is on record?
**A.** The EC50 was 3000 nM.

**Q.** And the CC50 (in vitro [1])?
**A.** The CC50 was greater than 20 µM.

**Q.** What about the CC50 (in vitro [1]; CC50 (μM)) of the same molecule?
**A.** The CC50 was 36.9 µM.

**Q.** What about the EC50 (BKV (Gardner strain); BKV in Vero cells (Table 7), read-out: BKV EC50) of the same molecule?
**A.** Its EC50 is 1550 nM.

**Q.** And the EC50 (BKV (Gardner strain); Virus BKV, cell line Vero (Table 8), read-out: EC50)?
**A.** The EC50 was 2100 nM.

**Q.** What about the EC50 (Ebola) of the same molecule?
**A.** Its EC50 is 1000 nM.

**Q.** And the EC50 (MCMV)?
**A.** Its EC50 is 1600 nM.

**Q.** And the EC50 [2]?
**A.** The EC50 was greater than 4 µM.

**Q.** And the CC50 (in vitro [3])?
**A.** The CC50 was 17.2 µM.

**Q.** What about the EC50 [4] of the same molecule?
**A.** Its EC50 is greater than 4 µM.

**Q.** What about the EC50 (HHV-8) of the same molecule?
**A.** The EC50 was less than 80 nM.

**Q.** And the EC50 [5]?
**A.** Its EC50 is greater than 10 µM.

**Q.** And the EC50 (HCMV (Strain AD169); Strain AD169, human foreskin fibroblast cells, read-out: HCMV EC50)?
**A.** Its EC50 is 52 nM.

**Q.** What about the EC50 (HCMV (Strain AD169); Virus AD169, human foreskin fibroblast cells (Table 3), read-out: EC50) of the same molecule?
**A.** Its EC50 is roughly 52 nM.

**Q.** What about the EC90 (HCMV (Strain AD169); Human betaherpesvirus 5, Virus AD169, human foreskin fibroblast cells) of the same molecule?
**A.** The EC90 was 150 nM.

**Q.** What about the EC50 (HHV-6B) of the same molecule?
**A.** The EC50 was 4.7 µM.
